Some test systems named below: OVCAR-8; UO-31; T47D; HCT-15; LOX IMVI; SN12C; Malme-3M; OVCAR-4; NCI-H226; SNB-75; MOLT-4; SK-MEL-28; U-251; SF-295; SNB-19; Hs-578T; SF-268; COLO 205; UACC-257; DU-145.
Holding throughout (assay): NCI tumour cell line growth inhibition, 48 h

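Assay format: 96-well plates, 48-hour exposure. GI50 is the concentration that inhibits growth by half.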 Calls of active or inactive are those of the source. Rule as the data show it: active = GI50 up to about 1.1 µM and inactive = higher. Where only a bound is given, the exact number is not on record here.

As for `CN(C)CCNC(=O)c1cccc2[nH]c(-c3ccncc3)nc12`, the GI50 in the experiment with OVCAR-8 was 6.68 µM (inactive); in the experiment with UO-31, 2.77 µM (inactive); with T47D it was 12.7 µM (inactive); with HCT-15 it was 2.89 µM; in the experiment with LOX IMVI, 0.733 µM (active); in the experiment with SN12C, 9.73 µM (inactive). The GI50 is 1.91 µM (inactive) with Malme-3M; 9.29 µM (inactive) in the experiment with OVCAR-4; 15.2 µM (inactive) in the experiment with NCI-H226; 7.33 µM (inactive) in the experiment on SNB-75; 3.56 µM (inactive) in the experiment on MOLT-4; 1.86 µM (inactive) in the experiment with SK-MEL-28. In addition, the GI50 is 3.1 µM (inactive) in the experiment with U-251; 3.02 µM (inactive) in the experiment on SF-295; 10.7 µM (inactive) in the experiment on SNB-19; 4.59 µM (inactive) in the experiment on Hs-578T; 11.4 µM (inactive) with SF-268; 1.6 µM (inactive) in the experiment on COLO 205. Moreover, the GI50 with UACC-257 is 1.83 µM (inactive); in the experiment on DU-145 it was 7.76 µM (inactive).

With `CCOc1ccccc1/C=C(/C#N)C(N)=O`, the GI50 with OVCAR-8 was > 100 µM (inactive); with UO-31 it was 85.3 µM (inactive); in the experiment with T47D it was > 100 µM (inactive); in the experiment with HCT-15 it was 59 µM; with LOX IMVI, > 100 µM (inactive); in the experiment with SN12C, > 100 µM (inactive). Further, the GI50 in the experiment with Malme-3M is > 100 µM (inactive); in the experiment with OVCAR-4, > 100 µM (inactive); in the experiment with NCI-H226, > 100 µM (inactive); with SNB-75 it was > 100 µM (inactive); in the experiment with MOLT-4 it was 83.9 µM (inactive); in the experiment with SK-MEL-28, > 100 µM (inactive). Besides, the GI50 in the experiment on U-251, with SF-295, in the experiment on SNB-19, in the experiment on Hs-578T, in the experiment on SF-268 and in the experiment on COLO 205 was > 100 µM (inactive) each time. In addition, the GI50 with UACC-257 and in the experiment on DU-145 was > 100 µM (inactive) in each case.

On to `CC[C@@]1(O)C(=O)OCc2c1cc1n(c2=O)Cc2c-1nc1ccc(N)cc1c2CC[Si](C)(C)C`, for which the GI50 in the experiment on OVCAR-8 was < 0.01 µM (active); with UO-31 it was < 0.01 µM (active); in the experiment with T47D, < 0.01 µM (active); with HCT-15, 0.0153 µM; in the experiment on LOX IMVI, < 0.01 µM (active); in the experiment on SN12C it was < 0.01 µM (active). Further, the GI50 was < 0.0115 µM (active) in the experiment on Malme-3M; 0.015 µM (active) in the experiment with OVCAR-4; < 0.01 µM (active) with NCI-H226; < 0.01 µM (active) in the experiment with SNB-75; < 0.01 µM (active) with MOLT-4; 0.0227 µM (active) in the experiment with SK-MEL-28. Also, the GI50 in the experiment on U-251 was < 0.01 µM (active); in the experiment with SF-295 it was < 0.01 µM (active); in the experiment with SNB-19, < 0.01 µM (active); in the experiment on Hs-578T it was 0.134 µM (active); in the experiment with SF-268, < 0.01 µM (active); in the experiment on COLO 205 it was < 0.0164 µM (active). Moreover, the GI50 in the experiment with UACC-257 and in the experiment with DU-145 was < 0.01 µM (active) throughout.

Consider `C=CCOC(=O)Cn1cc(C)c(=O)[nH]c1=O`, for which the GI50 was > 100 µM (inactive) in the experiment on OVCAR-8; > 100 µM (inactive) in the experiment with UO-31; > 100 µM (inactive) in the experiment on T47D; above 100 µM in the experiment on HCT-15; > 100 µM (inactive) in the experiment with LOX IMVI; > 100 µM (inactive) in the experiment with SN12C. Further, the GI50 in the experiment with Malme-3M, in the experiment with OVCAR-4, in the experiment with NCI-H226, with SNB-75, in the experiment on MOLT-4 and in the experiment with SK-MEL-28 was > 100 µM (inactive) each time. Also, the GI50 in the experiment on U-251, in the experiment with SF-295, in the experiment on SNB-19, with Hs-578T, in the experiment on SF-268 and with COLO 205 was > 100 µM (inactive) in each case. In addition, the GI50 with UACC-257 and in the experiment with DU-145 was > 100 µM (inactive) throughout.

On to `CC(O)C1CC1(CO)CNc1cc(Cl)nc(N)n1` (stereo not given), for which the GI50 with OVCAR-8 was > 100 µM (inactive); in the experiment on UO-31 it was > 100 µM (inactive); in the experiment with T47D, > 100 µM (inactive); in the experiment with HCT-15 it was above 100 µM; in the experiment on LOX IMVI, > 100 µM (inactive); in the experiment with SN12C it was > 100 µM (inactive). Further, the GI50 in the experiment on Malme-3M, in the experiment on OVCAR-4, with NCI-H226, with SNB-75, in the experiment with MOLT-4 and with SK-MEL-28 was > 100 µM (inactive) throughout. Besides, the GI50 with U-251, in the experiment on SF-295, in the experiment on SNB-19, in the experiment with Hs-578T, in the experiment on SF-268 and with COLO 205 was > 100 µM (inactive) each time. In addition, the GI50 with UACC-257 and in the experiment with DU-145 was > 100 µM (inactive) in each case.

Regarding `CCOC(=O)c1nc2ccc(C(F)(F)F)cc2nc1Oc1cc(OC)c(OC)c(OC)c1`, the GI50 is 38.3 µM (inactive) in the experiment with OVCAR-8; > 100 µM (inactive) with UO-31; > 100 µM (inactive) in the experiment on T47D; 72.9 µM in the experiment with HCT-15; > 100 µM (inactive) with LOX IMVI; > 100 µM (inactive) in the experiment with SN12C. Also, the GI50 with Malme-3M was 35.3 µM (inactive); with OVCAR-4 it was 2.64 µM (inactive); in the experiment with NCI-H226, 27.2 µM (inactive); with SNB-75, 19.5 µM (inactive); in the experiment with MOLT-4, > 100 µM (inactive); with SK-MEL-28 it was > 100 µM (inactive). For the same compound, the GI50 is 55.6 µM (inactive) in the experiment with U-251; 97.3 µM (inactive) with SF-295; 27.8 µM (inactive) in the experiment on SNB-19; 16.8 µM (inactive) in the experiment on Hs-578T; 35.6 µM (inactive) with SF-268; 17.7 µM (inactive) in the experiment with COLO 205. Further, the GI50 with UACC-257 was 40.4 µM (inactive); with DU-145, 46.8 µM (inactive).

Take `O=c1oc2cc(/N=C/c3ccccc3Cl)ccc2c2ccccc12`: the GI50 was > 100 µM (inactive) in the experiment on OVCAR-8; 40.1 µM (inactive) in the experiment on UO-31; > 100 µM (inactive) with T47D; above 100 µM in the experiment with HCT-15; 87.3 µM (inactive) in the experiment on LOX IMVI; > 100 µM (inactive) in the experiment on SN12C. In addition, the GI50 with Malme-3M, in the experiment with OVCAR-4, in the experiment with NCI-H226, in the experiment on SNB-75, in the experiment on MOLT-4 and in the experiment with SK-MEL-28 was > 100 µM (inactive) in each case. In addition, the GI50 in the experiment with U-251 was > 100 µM (inactive); with SF-295 it was > 100 µM (inactive); in the experiment on SNB-19, 97.5 µM (inactive); with Hs-578T it was > 100 µM (inactive); in the experiment with SF-268, 87.1 µM (inactive); in the experiment with COLO 205 it was > 100 µM (inactive). Moreover, the GI50 with UACC-257 and in the experiment with DU-145 was > 100 µM (inactive) in each case.

As for `CC(C)(C)c1ccc(O)c(Br)c1`, the GI50 in the experiment on OVCAR-8 is > 100 µM (inactive); in the experiment with UO-31 it was > 100 µM (inactive); with T47D, 11.5 µM (inactive); with HCT-15 it was above 100 µM; with LOX IMVI it was > 100 µM (inactive); in the experiment with SN12C, > 100 µM (inactive). The GI50 was > 100 µM (inactive) in the experiment on Malme-3M; > 100 µM (inactive) in the experiment with OVCAR-4; > 100 µM (inactive) in the experiment on NCI-H226; 15.1 µM (inactive) in the experiment on SNB-75; > 100 µM (inactive) in the experiment with MOLT-4; > 100 µM (inactive) in the experiment with SK-MEL-28. Besides, the GI50 in the experiment with U-251, in the experiment with SF-295, with SNB-19, with Hs-578T, in the experiment with SF-268 and in the experiment on COLO 205 was > 100 µM (inactive) each time. Besides, the GI50 in the experiment with UACC-257 was 26.2 µM (inactive); in the experiment on DU-145 it was > 100 µM (inactive).

`CC(C)=CCC/C(C)=C/CC/C(C)=C/CCN(C)CCO`: the GI50 in the experiment with OVCAR-8 is 11.7 µM (inactive); with UO-31 it was 12.1 µM (inactive); in the experiment on T47D, 2.78 µM (inactive); in the experiment on HCT-15, 3.95 µM; with LOX IMVI it was 3.15 µM (inactive); in the experiment on SN12C, 12.3 µM (inactive). In addition, the GI50 in the experiment on Malme-3M is 3.54 µM (inactive); in the experiment with OVCAR-4, 13.9 µM (inactive); in the experiment on NCI-H226, 14.9 µM (inactive); with SNB-75 it was 7.43 µM (inactive); in the experiment with MOLT-4, 3.44 µM (inactive); with SK-MEL-28, 8.45 µM (inactive). For the same compound, the GI50 is 3.3 µM (inactive) with U-251; 3.61 µM (inactive) in the experiment on SF-295; 8.07 µM (inactive) with SNB-19; 1.88 µM (inactive) in the experiment on Hs-578T; 12.2 µM (inactive) in the experiment with SF-268; 1.72 µM (inactive) with COLO 205. Also, the GI50 in the experiment on UACC-257 is 8.24 µM (inactive); with DU-145, 12.7 µM (inactive).

With `OCCO[P+]1(OCCO)n2c3ccc2C(c2ccccc2)=C2C=CC(=N2)C(c2ccccc2)=c2ccc(n21)=C(c1ccccc1)C1=NC(=C3c2ccccc2)C=C1`, the GI50 with OVCAR-8 is 0.0767 µM (active); in the experiment with UO-31, 1.14 µM (inactive); with T47D it was 0.0251 µM (active); in the experiment on HCT-15, 1.16 µM; in the experiment with LOX IMVI, 0.022 µM (active); in the experiment on SN12C, 0.0253 µM (active). Also, the GI50 was 0.0408 µM (active) in the experiment on Malme-3M; 0.0719 µM (active) in the experiment with OVCAR-4; 0.0579 µM (active) with NCI-H226; < 0.0144 µM (active) with SNB-75; 0.0545 µM (active) with MOLT-4; 0.0408 µM (active) with SK-MEL-28. Moreover, the GI50 in the experiment on U-251 is 0.0152 µM (active); in the experiment with SF-295, 0.15 µM (active); in the experiment with SNB-19 it was 0.0133 µM (active); with Hs-578T it was 0.0237 µM (active); in the experiment on SF-268, 0.0263 µM (active); in the experiment on COLO 205 it was 0.013 µM (active). In addition, the results for the GI50 in the experiment with UACC-257 and in the experiment on DU-145 were 0.0207 µM (active) and 0.0316 µM (active), respectively.

The values are drawn from ChEMBL document CHEMBL1201862, “PubChem BioAssay data set” (2004).
